In BindingDB's records for doi:10.1021/cb300729y (University of Dundee, 2013):
One block for each compound: values may come before it.

Experiments:
[1] = target: SRSF protein kinase 1 (Homo sapiens, UniProt Q96SB4); assay: Kinase Assay
Procedure: (§1) Selected compounds were screened against a panel of mammalian kinases. Compounds were supplied in DMSO and screened in duplicates at 100 uM concentration using a radioactive (33P-ATP) filter-binding-assay.

[2] = target: Proto-oncogene tyrosine-protein kinase Src (Gallus gallus, UniProt P00523); assay: Kinase Assay
Procedure: as §1

[3] = target: Ribosomal protein S6 kinase alpha-3 (Homo sapiens, UniProt P51812); assay: Kinase Assay
Procedure: as §1

[4] = target: Casein kinase II subunit alpha (Homo sapiens, UniProt P68400); assay: Kinase Assay
Casein kinase II subunit alpha, sequence (P68400 whole entry): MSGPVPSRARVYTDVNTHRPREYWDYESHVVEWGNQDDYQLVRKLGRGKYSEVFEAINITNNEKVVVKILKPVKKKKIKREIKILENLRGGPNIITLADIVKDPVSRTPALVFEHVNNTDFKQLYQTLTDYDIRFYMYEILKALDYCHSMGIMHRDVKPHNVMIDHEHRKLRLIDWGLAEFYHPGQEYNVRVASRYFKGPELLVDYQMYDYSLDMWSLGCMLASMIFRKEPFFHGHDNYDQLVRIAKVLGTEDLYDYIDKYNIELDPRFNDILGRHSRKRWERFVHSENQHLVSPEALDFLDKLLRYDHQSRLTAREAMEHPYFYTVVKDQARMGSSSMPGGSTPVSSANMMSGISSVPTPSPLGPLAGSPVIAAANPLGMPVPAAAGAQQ
Procedure: as §1

[5] = target: MAP kinase-activated protein kinase 3 (Homo sapiens, UniProt Q16644); assay: Kinase Assay
MAP kinase-activated protein kinase 3, sequence (Q16644 whole entry): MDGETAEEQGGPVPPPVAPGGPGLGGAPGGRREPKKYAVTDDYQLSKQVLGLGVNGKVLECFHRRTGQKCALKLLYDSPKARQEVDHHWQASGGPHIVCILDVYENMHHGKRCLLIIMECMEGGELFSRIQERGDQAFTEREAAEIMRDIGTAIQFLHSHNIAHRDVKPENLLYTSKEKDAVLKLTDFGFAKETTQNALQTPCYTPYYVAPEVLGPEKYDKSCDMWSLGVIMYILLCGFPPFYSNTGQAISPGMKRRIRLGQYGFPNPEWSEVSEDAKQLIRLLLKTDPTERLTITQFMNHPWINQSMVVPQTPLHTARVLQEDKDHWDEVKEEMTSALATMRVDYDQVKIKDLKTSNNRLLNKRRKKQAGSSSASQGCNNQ
Procedure: as §1

[6] = target: T1, Aurora kinase A (Homo sapiens, UniProt O14965); assay: Kinase Assay
T1 sequence (O14965 whole entry): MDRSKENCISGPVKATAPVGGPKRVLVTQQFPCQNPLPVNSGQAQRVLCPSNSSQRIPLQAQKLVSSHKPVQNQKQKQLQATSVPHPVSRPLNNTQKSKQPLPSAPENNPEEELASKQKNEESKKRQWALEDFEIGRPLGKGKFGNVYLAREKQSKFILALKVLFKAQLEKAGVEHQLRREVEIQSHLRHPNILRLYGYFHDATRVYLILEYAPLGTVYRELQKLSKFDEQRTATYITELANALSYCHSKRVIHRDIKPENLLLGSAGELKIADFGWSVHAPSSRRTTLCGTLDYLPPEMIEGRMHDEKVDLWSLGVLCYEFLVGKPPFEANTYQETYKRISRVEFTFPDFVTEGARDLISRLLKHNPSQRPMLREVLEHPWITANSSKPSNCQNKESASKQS
Procedure: as §1

[7] = target: Dual specificity protein kinase CLK2 (Homo sapiens, UniProt P49760); assay: Kinase Assay
Procedure: as §1

[8] = target: Insulin-like growth factor 1 receptor (Homo sapiens, UniProt P08069); assay: Kinase Assay
Insulin-like growth factor 1 receptor, sequence (P08069 31-736 limits assumed): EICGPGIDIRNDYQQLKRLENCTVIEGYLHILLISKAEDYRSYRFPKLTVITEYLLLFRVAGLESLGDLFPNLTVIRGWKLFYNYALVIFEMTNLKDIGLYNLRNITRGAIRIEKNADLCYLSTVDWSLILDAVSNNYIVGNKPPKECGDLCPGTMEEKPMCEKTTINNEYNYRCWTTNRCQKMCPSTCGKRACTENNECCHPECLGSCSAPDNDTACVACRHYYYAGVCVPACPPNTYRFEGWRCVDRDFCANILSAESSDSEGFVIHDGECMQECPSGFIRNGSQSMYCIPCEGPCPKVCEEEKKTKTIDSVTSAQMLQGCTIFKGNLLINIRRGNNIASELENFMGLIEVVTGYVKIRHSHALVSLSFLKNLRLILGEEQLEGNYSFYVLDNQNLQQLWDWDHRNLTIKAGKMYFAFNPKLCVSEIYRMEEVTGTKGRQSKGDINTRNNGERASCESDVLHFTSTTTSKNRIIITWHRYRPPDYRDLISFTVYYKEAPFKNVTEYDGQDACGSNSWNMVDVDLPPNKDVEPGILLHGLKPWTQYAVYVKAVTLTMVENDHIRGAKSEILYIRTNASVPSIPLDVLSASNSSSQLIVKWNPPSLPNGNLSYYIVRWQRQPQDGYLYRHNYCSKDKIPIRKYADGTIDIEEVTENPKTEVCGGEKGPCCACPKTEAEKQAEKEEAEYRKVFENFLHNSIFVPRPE
Insulin-like growth factor 1 receptor, sequence (P08069 741-1367 limits assumed): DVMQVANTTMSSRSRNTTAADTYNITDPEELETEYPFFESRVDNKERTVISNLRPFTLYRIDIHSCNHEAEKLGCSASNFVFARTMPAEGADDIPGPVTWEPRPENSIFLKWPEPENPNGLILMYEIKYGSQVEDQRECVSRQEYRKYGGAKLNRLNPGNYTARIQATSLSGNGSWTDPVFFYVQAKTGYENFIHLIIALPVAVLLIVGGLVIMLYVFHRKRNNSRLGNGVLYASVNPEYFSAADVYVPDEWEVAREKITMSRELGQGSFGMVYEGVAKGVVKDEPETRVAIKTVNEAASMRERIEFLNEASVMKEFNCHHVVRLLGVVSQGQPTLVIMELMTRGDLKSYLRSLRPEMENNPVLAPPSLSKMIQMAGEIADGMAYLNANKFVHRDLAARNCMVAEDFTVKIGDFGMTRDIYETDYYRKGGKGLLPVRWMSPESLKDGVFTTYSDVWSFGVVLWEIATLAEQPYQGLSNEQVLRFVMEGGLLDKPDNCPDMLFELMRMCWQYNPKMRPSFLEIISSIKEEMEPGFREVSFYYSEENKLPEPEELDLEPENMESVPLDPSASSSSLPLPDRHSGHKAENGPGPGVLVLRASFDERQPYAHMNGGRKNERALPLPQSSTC
Procedure: as §1

[9] = target: Cyclin-dependent kinase 2 (Homo sapiens, UniProt P24941); assay: Kinase Assay
Procedure: as §1

[10] = target: Fibroblast growth factor receptor 1 (Homo sapiens, UniProt P11362); assay: Kinase Assay
Fibroblast growth factor receptor 1, sequence (P11362 whole entry): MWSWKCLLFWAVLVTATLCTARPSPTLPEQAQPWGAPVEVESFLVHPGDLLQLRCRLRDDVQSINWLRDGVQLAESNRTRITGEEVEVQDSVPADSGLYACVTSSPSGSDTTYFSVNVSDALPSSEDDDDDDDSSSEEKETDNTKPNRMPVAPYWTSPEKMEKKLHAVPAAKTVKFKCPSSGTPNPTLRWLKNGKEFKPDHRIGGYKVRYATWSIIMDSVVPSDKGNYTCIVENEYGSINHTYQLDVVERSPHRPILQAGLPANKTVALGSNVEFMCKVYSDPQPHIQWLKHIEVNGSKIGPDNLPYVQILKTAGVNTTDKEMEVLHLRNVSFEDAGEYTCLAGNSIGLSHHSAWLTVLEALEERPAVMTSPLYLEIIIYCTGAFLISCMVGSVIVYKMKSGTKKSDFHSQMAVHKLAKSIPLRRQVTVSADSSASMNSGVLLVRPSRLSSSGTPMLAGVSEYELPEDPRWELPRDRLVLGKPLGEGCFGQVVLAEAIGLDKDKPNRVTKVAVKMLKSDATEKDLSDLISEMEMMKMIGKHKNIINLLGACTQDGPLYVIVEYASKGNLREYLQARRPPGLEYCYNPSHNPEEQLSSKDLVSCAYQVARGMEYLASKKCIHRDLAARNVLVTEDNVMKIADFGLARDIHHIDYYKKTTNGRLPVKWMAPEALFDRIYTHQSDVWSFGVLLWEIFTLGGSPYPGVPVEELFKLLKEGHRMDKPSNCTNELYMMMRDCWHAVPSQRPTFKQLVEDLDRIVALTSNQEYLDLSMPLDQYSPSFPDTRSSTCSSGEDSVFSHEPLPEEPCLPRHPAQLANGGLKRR
Procedure: as §1

[11] = target: T2, Mitogen-activated protein kinase kinase kinase 7 (Homo sapiens, UniProt O43318); assay: Kinase Assay
T2 sequence (O43318 whole entry): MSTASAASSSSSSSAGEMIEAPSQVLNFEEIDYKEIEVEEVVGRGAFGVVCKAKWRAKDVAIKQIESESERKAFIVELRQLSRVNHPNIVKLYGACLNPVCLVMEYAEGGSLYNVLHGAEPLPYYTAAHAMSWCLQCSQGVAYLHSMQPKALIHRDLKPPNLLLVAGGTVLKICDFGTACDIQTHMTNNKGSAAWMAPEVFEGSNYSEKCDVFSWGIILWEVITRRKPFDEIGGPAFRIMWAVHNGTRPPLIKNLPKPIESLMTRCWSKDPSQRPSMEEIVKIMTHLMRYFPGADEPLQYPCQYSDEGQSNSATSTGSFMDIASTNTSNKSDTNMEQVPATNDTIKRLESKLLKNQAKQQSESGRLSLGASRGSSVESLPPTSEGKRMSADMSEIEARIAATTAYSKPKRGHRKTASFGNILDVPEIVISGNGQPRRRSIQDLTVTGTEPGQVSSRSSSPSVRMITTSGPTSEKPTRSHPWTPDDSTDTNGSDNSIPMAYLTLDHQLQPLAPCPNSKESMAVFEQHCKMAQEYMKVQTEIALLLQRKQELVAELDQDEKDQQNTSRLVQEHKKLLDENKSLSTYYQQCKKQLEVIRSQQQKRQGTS
Procedure: as §1

[12] = target: Germinal center kinase MAP4K2 (Homo sapiens); assay: Selected compounds were screened against a panel of mammalian kinases. Compounds were supplied in DMSO and screened in duplicates at 100 uM concentration using a radioactive (33P-ATP) filter-binding-assay.
[13] = target: Vascular endothelial growth factor receptor 2 (Homo sapiens, UniProt P35968); assay: Kinase Assay
Vascular endothelial growth factor receptor 2, sequence (P35968 whole entry): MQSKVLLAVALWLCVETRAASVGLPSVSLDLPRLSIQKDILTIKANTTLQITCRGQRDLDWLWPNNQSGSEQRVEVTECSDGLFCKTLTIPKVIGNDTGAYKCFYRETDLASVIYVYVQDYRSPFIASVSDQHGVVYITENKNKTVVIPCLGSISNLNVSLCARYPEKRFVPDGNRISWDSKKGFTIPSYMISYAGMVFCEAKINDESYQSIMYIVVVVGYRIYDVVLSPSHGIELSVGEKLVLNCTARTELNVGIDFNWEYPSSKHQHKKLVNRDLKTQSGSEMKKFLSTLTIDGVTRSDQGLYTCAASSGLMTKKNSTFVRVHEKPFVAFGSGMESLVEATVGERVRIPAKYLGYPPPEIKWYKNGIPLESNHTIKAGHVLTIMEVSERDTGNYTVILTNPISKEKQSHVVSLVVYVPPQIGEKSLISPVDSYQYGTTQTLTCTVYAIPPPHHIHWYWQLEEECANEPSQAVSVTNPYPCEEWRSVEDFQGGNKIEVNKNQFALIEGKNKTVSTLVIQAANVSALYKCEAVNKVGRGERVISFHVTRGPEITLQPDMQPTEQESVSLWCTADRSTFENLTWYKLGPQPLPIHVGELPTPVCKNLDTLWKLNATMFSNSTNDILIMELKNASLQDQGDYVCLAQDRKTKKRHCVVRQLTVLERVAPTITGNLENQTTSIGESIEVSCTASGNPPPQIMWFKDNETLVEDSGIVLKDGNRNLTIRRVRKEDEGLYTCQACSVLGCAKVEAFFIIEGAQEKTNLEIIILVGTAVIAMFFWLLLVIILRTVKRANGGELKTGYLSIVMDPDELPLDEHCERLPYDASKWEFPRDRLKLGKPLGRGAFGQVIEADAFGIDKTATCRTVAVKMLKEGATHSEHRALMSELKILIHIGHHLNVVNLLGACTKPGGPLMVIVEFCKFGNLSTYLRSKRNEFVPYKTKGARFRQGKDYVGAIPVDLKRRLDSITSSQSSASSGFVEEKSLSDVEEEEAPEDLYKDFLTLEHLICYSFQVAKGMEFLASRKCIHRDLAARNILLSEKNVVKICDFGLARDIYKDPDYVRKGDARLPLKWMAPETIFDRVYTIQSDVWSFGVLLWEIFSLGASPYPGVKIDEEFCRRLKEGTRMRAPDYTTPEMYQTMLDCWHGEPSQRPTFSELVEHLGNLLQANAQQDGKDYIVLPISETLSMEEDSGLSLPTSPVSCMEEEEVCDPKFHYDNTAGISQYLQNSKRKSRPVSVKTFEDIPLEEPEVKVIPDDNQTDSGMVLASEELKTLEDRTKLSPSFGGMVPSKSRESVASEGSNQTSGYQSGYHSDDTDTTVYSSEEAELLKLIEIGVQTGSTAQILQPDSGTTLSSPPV
Procedure: as §1

[14] = target: Serine/threonine-protein kinase Chk2 (Homo sapiens, UniProt O96017); assay: Kinase Assay
Procedure: as §1

[15] = target: Tyrosine-protein kinase Yes (Homo sapiens, UniProt P07947); assay: Kinase Assay
Procedure: as §1

[16] = target: T3, Serine/threonine-protein kinase Sgk1 (Homo sapiens, UniProt O00141); assay: Kinase Assay
T3 sequence (O00141 whole entry): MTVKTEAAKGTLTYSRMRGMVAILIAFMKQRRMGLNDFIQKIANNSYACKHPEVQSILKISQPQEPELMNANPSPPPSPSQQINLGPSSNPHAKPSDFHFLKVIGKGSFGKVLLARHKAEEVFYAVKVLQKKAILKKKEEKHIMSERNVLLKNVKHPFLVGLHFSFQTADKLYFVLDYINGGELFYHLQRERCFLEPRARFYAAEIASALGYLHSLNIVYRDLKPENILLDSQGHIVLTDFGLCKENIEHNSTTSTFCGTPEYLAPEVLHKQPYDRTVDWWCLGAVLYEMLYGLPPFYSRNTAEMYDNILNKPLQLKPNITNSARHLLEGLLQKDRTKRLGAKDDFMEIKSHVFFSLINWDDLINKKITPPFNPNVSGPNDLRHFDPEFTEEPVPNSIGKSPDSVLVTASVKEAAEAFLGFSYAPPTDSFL
Procedure: as §1

[17] = target: Glycogen synthase kinase-3 beta (Homo sapiens, UniProt P49841); assay: Kinase Assay
Procedure: as §1

[18] = target: T4, Ephrin type-B receptor 3 (Homo sapiens, UniProt P54753); assay: Kinase Assay
T4 sequence (P54753 whole entry): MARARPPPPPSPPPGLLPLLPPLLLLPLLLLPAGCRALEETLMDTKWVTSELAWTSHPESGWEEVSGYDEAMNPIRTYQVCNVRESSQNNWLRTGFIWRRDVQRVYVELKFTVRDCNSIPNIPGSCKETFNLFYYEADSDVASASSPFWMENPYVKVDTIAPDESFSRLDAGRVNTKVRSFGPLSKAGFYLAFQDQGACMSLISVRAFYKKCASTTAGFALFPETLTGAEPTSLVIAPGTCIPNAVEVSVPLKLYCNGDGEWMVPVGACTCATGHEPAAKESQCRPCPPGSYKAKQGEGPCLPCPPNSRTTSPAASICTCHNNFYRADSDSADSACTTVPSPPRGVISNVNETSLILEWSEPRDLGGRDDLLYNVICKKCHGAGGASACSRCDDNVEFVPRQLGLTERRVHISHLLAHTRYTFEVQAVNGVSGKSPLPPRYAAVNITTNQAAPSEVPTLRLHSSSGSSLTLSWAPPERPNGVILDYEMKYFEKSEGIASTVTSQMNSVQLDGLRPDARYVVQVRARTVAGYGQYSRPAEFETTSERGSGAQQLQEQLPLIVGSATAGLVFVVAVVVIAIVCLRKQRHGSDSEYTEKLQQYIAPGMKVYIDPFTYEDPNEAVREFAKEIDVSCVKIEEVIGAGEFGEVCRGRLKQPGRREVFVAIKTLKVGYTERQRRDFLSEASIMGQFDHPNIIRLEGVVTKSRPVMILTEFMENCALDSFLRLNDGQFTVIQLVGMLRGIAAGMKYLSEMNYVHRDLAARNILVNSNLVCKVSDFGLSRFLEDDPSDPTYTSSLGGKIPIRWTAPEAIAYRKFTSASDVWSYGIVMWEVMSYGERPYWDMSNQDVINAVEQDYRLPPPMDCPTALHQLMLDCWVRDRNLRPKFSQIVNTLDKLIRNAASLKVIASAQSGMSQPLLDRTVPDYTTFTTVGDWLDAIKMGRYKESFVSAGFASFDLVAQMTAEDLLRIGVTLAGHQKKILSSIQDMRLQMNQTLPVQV
Procedure: as §1

[19] = target: Serine/threonine-protein kinase pim-1 (Homo sapiens, UniProt P11309); assay: Kinase Assay
Serine/threonine-protein kinase pim-1, sequence (P11309 whole entry): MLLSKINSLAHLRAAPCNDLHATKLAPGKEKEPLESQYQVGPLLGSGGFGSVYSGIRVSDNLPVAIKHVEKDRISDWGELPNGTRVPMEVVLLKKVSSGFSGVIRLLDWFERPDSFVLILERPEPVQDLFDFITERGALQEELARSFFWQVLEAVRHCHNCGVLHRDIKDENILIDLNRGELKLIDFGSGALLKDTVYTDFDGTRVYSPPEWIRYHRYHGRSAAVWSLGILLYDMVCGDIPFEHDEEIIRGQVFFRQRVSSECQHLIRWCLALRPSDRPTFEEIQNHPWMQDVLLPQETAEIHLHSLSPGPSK
Procedure: as §1

[20] = target: Serine/threonine-protein kinase pim-3 (Homo sapiens, UniProt Q86V86); assay: Kinase Assay
Procedure: as §1

IC50 [1]: 114 µM
IC50 [2]: 97 µM
IC50 [3]: 196 µM
IC50 [4]: 18 µM
IC50 [5]: 21 µM
Structure (SMILES): CC1CN(c2nc3ccccn3c(=O)c2N)CC(C)O1 (stereo unspecified) [Kinase inhibitor, A1]

IC50 [6]: 188 µM
IC50 [7]: 25 µM
IC50 [8]: 47 µM
IC50 [9]: 26 µM
IC50 [4]: 131 µM
IC50 [10]: 252 µM
IC50 [11]: 24 µM
IC50 [12]: 4 µM
Structure (SMILES): Nc1cnc2c(-c3c(F)cccc3F)cccn2c1=O [Kinase inhibitor, A2]

IC50 [13]: 39 µM
IC50 [14]: 17 µM
IC50 [8]: 25 µM
IC50 [15]: 21 µM
IC50 [2]: 20 µM
IC50 [11]: 11 µM
IC50 [12]: 6 µM
Structure (SMILES): Nc1nc2cnc(-c3ccccc3)cn2n1 [Kinase inhibitor, B1]

IC50 [16]: 110 µM
IC50 [17]: 25 µM
Structure (SMILES): COc1ccc(-c2cc3c(=O)[nH]cnc3s2)cc1OC [Kinase inhibitor, C2]

IC50 [18]: 158 µM
IC50 [10]: 469 µM
Structure (SMILES): CC(C)(C)Nc1c(C2CC2)[nH]c2ncnn12 [Kinase inhibitor, D1]

IC50 [19]: 22 µM
IC50 [20]: 14 µM
Structure (SMILES): O=c1cc(-c2ccccc2F)nc2[nH]ccn12 [Kinase inhibitor, F3]
